Measurements reported in US9434745B2, “7-oxo-thiazolopyridine carbonic acid derivatives and their use in the treatment, amelioration or prevention of a viral disease” (Savira Pharmaceuticals GmbH, priority 2012, dated 2016).

System: not given
Assay: not given
Conditions: not given

First: O=C(O)Cc1c[nH]c2nc(Nc3ccccc3)nn2c1=O
Second: CCOC(=O)Cc1c[nH]c2nc(Nc3ccccc3)nn2c1=O
The melting point of the first is higher: 279 to 281 °C for the first, 255 to 257 °C for the second.

`O=C(O)c1cn(Cc2ccccc2)c2cc(C3CC3)nn2c1=O` and `O=C(O)c1cn(Cc2ccccc2)c2cc(C3CCCC3)nn2c1=O` cannot be ordered by melting point: 210 to 215 °C for the first, 213 to 215 °C for the second.

First: O=C(O)c1cn(CCc2ccccc2)c2cc(C3CC3)nn2c1=O
Second: O=C(O)c1cn(CCCc2ccccc2)c2cc(C3CC3)nn2c1=O
The melting point of the first is higher: 185 to 190 °C for the first, 95 to 100 °C for the second.

Compared with `O=C(O)c1cn(CCc2ccc(O)cc2)c2cc(C3CC3)nn2c1=O`, `COc1ccc(CCn2cc(C(=O)O)c(=O)n3nc(C4CC4)cc23)cc1` is lower in melting point: 265 to 270 °C for the first, 145 to 150 °C for the second.

First: O=C(O)c1cn(CCc2ccc(C(F)(F)F)cc2)c2cc(C3CC3)nn2c1=O
Second: O=C(O)c1cn(CCc2cccc(C(F)(F)F)c2)c2cc(C3CC3)nn2c1=O
The melting point of the first is higher: 225 to 230 °C for the first, 200 to 205 °C for the second.

First: O=C(O)c1cn(CCc2cccc(Cl)c2)c2cc(C3CC3)nn2c1=O
Second: O=C(O)c1cn(CCc2cccc(F)c2)c2cc(C3CC3)nn2c1=O
The melting point of the first is higher: 230 to 235 °C for the first, 220 to 225 °C for the second.

Compared with `CC(C)c1cc2n(Cc3ccccc3)cc(C(=O)O)c(=O)n2n1`, `CC(C)c1cc2n(CCc3ccccc3)cc(C(=O)O)c(=O)n2n1` is higher in melting point: 180 to 185 °C for the first, 220 to 225 °C for the second.

Compared with `O=C(O)c1cn(CCc2ccccc2)c2cc(C3CCCC3)nn2c1=O`, `CCOC(=O)c1cn(CCc2ccccc2)c2cc(C3CC3)nn2c1=O` is lower in melting point: 198 to 200 °C for the first, 155 to 160 °C for the second.

First: CCOC(=O)c1c[nH]c2nc(NCc3ccc(Br)cc3)nn2c1=O
Second: CCOC(=O)c1c[nH]c2nc(NCc3cccc4ccccc34)nn2c1=O
The melting point of the first is higher: 286 to 287 °C for the first, 273 to 275 °C for the second.

First: CCOC(=O)c1c[nH]c2c(C#N)c(CCCNC)nn2c1=O
Second: CCOC(=O)c1c[nH]c2cc(C(=O)NCc3ccccc3)nn2c1=O
The melting point of the first is lower: 285 to 287 °C for the first, 290 to 292 °C for the second.

First: O=C(O)c1c[nH]c2cc(C3CC3)nn2c1=O
Second: CCOC(=O)Cc1c[nH]c2cc(C3CC3)nn2c1=O
The melting point of the first is lower: 275 to 278 °C for the first, 280 to 283 °C for the second.

First: CCOC(=O)c1cn(CCc2ccc(O)cc2)c2cc(C3CC3)nn2c1=O
Second: CCOC(=O)c1cn(CCc2cccc(Cl)c2)c2cc(C3CC3)nn2c1=O
The melting point of the first is lower: 95 to 100 °C for the first, 160 to 165 °C for the second.

First: CCOC(=O)c1cn(CCc2cccc(F)c2)c2cc(C3CC3)nn2c1=O
Second: CCOC(=O)c1cn(CCc2cccc(C(F)(F)F)c2)c2cc(C3CC3)nn2c1=O
The melting point of the first is higher: 160 to 165 °C for the first, 140 to 145 °C for the second.

Compared with `CCOC(=O)c1cn(Cc2ccccc2)c2cc(C(C)C)nn2c1=O`, `CCOC(=O)c1cn(CCc2ccccc2)c2cc(C(C)C)nn2c1=O` is lower in melting point: 135 to 140 °C for the first, 130 to 135 °C for the second.

First: CCOC(=O)Cc1c[nH]c2cc(C(F)(F)F)nn2c1=O
Second: O=C(O)c1c[nH]c2nc(NCc3ccccc3)nn2c1=O
The melting point of the first is higher: 290 to 293 °C for the first, 240 to 245 °C for the second.

In the case of `O=C(O)c1c[nH]c2nc(NCc3cccc4ccccc34)nn2c1=O`, the melting point is reported as 245 to 250 °C.

`O=C(O)Cc1c[nH]c2cc(C3CC3)nn2c1=O` gave a melting point greater than 300 °C.
`CCOC(=O)c1c[nH]c2nc(Nc3ccc(NC(C)=O)cc3)nn2c1=O` showed a melting point greater than 330 °C.
Compound `O=C(O)c1c[nH]c2cc(C(F)(F)F)nn2c1=O` has a melting point greater than 340 °C.
In the case of `CCOC(=O)c1c[nH]c2cc(C(=O)NCCc3ccc(Cl)cc3)nn2c1=O`, the melting point is reported as greater than 300 °C.

Target: T1, influenza A virus (IAV) PA-Nter fragment (amino acids 1-209) (Influenza A virus, UniProt P31343)
T1 construct: PA-Nter fragment (amino acids 1-209); made in house
Assay: FRET endonuclease activity assay
Type: biochemical
Conditions: @ 1 μM; read-out: FRET % reduction of v0

First: CCOC(=O)c1cn(Cc2ccccc2-c2ccccc2)c2sc(NS(=O)(=O)c3ccc(Cl)cc3)nc2c1=O
Second: CCOC(=O)c1ccc(S(=O)(=O)Nc2nc3c(=O)c(C(=O)OCC)cn(Cc4ccccc4-c4ccccc4)c3s2)cc1
The inhibition at 1 µM of the first is lower: 6.2% for the first, 8.1% for the second.

Going from `CCOC(=O)c1cn(C(c2ccccc2)c2ccccc2)c2sc(NS(=O)(=O)c3ccc(Cl)cc3F)nc2c1=O` to `O=C(O)c1cn(C(c2ccccc2)c2ccccc2)c2sc(NS(=O)(=O)c3ccc(Cl)cc3F)nc2c1=O`, the inhibition at 1 µM falls from 5.6% to 2%.

Going from `COc1ccc(S(=O)(=O)Nc2nc3c(=O)c(C(=O)O)cn(C(c4ccccc4)c4ccccc4)c3s2)cc1` to `CCOC(=O)c1cn(C(c2ccccc2)c2ccccc2)c2sc(NS(=O)(=O)c3ccc(OC)cc3)nc2c1=O`, the inhibition at 1 µM rises from 7.8% to 25%.

Same assay, conditions: @ 5 μM; read-out: FRET % reduction of v0

First: O=C(O)c1c[nH]c2ncnn2c1=O
Second: CC(C)c1cc2n(CCCc3ccccc3)cc(C(=O)O)c(=O)n2n1 [drawing 215]
The inhibition at 5 µM of the first is higher: 26% for the first, 23% for the second.

Same assay, conditions: @ 10 μM; read-out: FRET % reduction of v0

First: COc1ccc(CNc2nc3c(=O)c(C(=O)O)cn(C(c4ccccc4)c4ccccc4)c3s2)cc1
Second: O=C(O)c1cn(Cc2ccccc2-c2ccccc2)c2scnc2c1=O
The inhibition at 10 µM of the first is lower: 21.5% for the first, 64% for the second.

For `Nc1cc2n(Cc3ccccc3-c3ccccc3)cc(C(=O)O)c(=O)n2n1`, the inhibition at 10 µM was 38%.

Same assay, conditions: @ 25 μM; read-out: FRET % reduction of v0

First: O=C(O)c1c[nH]c2cc(C3CCCC3)nn2c1=O
Second: O=C(O)c1cn(CCc2ccccc2)c2cc(C3CCCC3)nn2c1=O [drawing 219]
The inhibition at 25 µM of the first is lower: 41% for the first, 42% for the second.

Going from `CS(=O)(=O)n1cc(C(=O)O)c(=O)n2nc(N)cc12` to `Nc1cc2n(S(=O)(=O)Cc3ccccc3)cc(C(=O)O)c(=O)n2n1`, the inhibition at 25 µM rises from 31% to 50%.

First: Nc1cc2n(C(=O)C3(c4ccccc4)CCCC3)cc(C(=O)O)c(=O)n2n1 [drawing 220]
Second: CC(C)c1cc2n(CCCc3ccccc3)cc(C(=O)O)c(=O)n2n1 [drawing 222]
The inhibition at 25 µM of the first is lower: 20% for the first, 22% for the second.

Going from `CCOC(=O)c1cn(CCc2ccc(O)cc2)c2cc(C3CC3)nn2c1=O` [drawing 223] to `O=C(O)c1cn(CCc2ccc(O)cc2)c2cc(C3CC3)nn2c1=O` [drawing 227], the inhibition at 25 µM rises from 22% to 27%.

First: O=C(O)c1cn(CCc2cccc(Cl)c2)c2cc(C3CC3)nn2c1=O [drawing 224]
Second: O=C(O)c1cn(CCc2cccc(C(F)(F)F)c2)c2cc(C3CC3)nn2c1=O [drawing 225]
The inhibition at 25 µM of the first is lower: 30% for the first, 32% for the second.

Same assay, conditions: @ 50 μM; read-out: FRET % reduction of v0

Compared with `O=C(O)c1cn(Cc2ccccc2-c2ccccc2)c2ccnn2c1=O`, `Nc1cc2n(Cc3ccccc3)cc(C(=O)O)c(=O)n2n1` is higher in inhibition at 50 µM: 29% for the first, 35% for the second.

Same assay, conditions: from initial reaction velocities (v0) of RNA substrate cleavage

`O=C(O)c1cn(Cc2ccccc2-c2ccccc2)c2sc(NS(=O)(=O)c3ccccc3)nc2c1=O` and `O=C(O)c1cn(Cc2ccccc2-c2ccccc2)c2sc(NS(=O)(=O)Cc3ccccc3)nc2c1=O` are within 1.5-fold of each other in IC50: 6.5 µM for the first, 7.3 µM for the second.

First: O=C(O)c1cn(Cc2ccccc2-c2ccccc2)c2sc(NCc3ccccc3)nc2c1=O
Second: O=C(O)c1cn(Cc2ccccc2-c2ccccc2)c2sc(NCc3cccc(Cl)c3)nc2c1=O
The IC50 of the first is 1.6-fold lower: 3.2 µM for the first, 5.2 µM for the second. The first is the more potent here.

First: CNc1nc2c(=O)c(C(=O)O)cn(Cc3ccccc3-c3ccccc3)c2s1
Second: CC(C)Nc1nc2c(=O)c(C(=O)O)cn(Cc3ccccc3-c3ccccc3)c2s1
The IC50 of the first is 5-fold lower: 2.8 µM for the first, 14 µM for the second.

Compared with `O=C(O)c1cn(Cc2ccccc2-c2ccccc2)c2sc(NC3CC3)nc2c1=O`, `O=CNc1nc2c(=O)c(C(=O)O)cn(Cc3ccccc3-c3ccccc3)c2s1` is 1.9-fold higher in IC50: 2.5 µM for the first, 4.7 µM for the second. The first is the more potent here.

`COCCNc1nc2c(=O)c(C(=O)O)cn(Cc3ccccc3-c3ccccc3)c2s1` and `CS(=O)(=O)Nc1nc2c(=O)c(C(=O)O)cn(Cc3ccccc3-c3ccccc3)c2s1` are within 1.5-fold of each other in IC50: 9 µM for the first, 8.1 µM for the second.

First: O=C(O)c1cn(Cc2ccccc2-c2ccccc2)c2sc(N3CCOCC3)nc2c1=O
Second: O=C(O)c1cn(Cc2ccccc2-c2ccccc2)c2sc(O)nc2c1=O
The IC50 of the first is 4.9-fold higher: 0.78 µM for the first, 0.16 µM for the second. The second is the more potent here.

`O=C(O)c1cn(Cc2ccccc2-c2ccccc2)c2sc(NS(=O)(=O)c3cccc(F)c3)nc2c1=O` and `O=C(O)c1cn(Cc2ccccc2-c2ccccc2)c2sc(NS(=O)(=O)c3ccc(Cl)cc3F)nc2c1=O` are within 1.5-fold of each other in IC50: 6.7 µM for the first, 5.7 µM for the second.

`O=C(O)c1cn(Cc2ccccc2-c2ccccc2)c2sc(NCc3ccc(Cl)cc3)nc2c1=O` and `COc1ccc(CNc2nc3c(=O)c(C(=O)O)cn(Cc4ccccc4-c4ccccc4)c3s2)cc1` are within 1.5-fold of each other in IC50: 2.3 µM for the first, 2.9 µM for the second.

Going from `CC(Nc1nc2c(=O)c(C(=O)O)cn(Cc3ccccc3-c3ccccc3)c2s1)c1ccccc1` (stereo not shown) to `Nc1nc2c(=O)c(C(=O)O)cn(Cc3ccccc3-c3ccccc3)c2s1`, the IC50 falls from 5.8 µM to 0.94 µM (6.2-fold). The second is the more potent here.

First: COc1ccc(S(=O)(=O)Nc2nc3c(=O)c(C(=O)O)cn(Cc4ccccc4-c4ccccc4)c3s2)cc1
Second: COc1ccc(S(=O)(=O)Nc2nc3c(=O)c(C(=O)O)cn(Cc4ccccc4-c4ccc(Cl)cc4)c3s2)cc1
The IC50 of the first is 2.7-fold lower: 2.7 µM for the first, 7.2 µM for the second.

`CCOC(=O)c1cn(Cc2ccccc2-c2ccccc2)c2sc(NCc3c(Cl)cccc3Cl)nc2c1=O` and `O=C(O)c1cn(Cc2ccccc2-c2ccccc2)c2sc(NS(=O)(=O)Cc3ccc(Cl)cc3Cl)nc2c1=O` are within 1.5-fold of each other in IC50: 6.3 µM for the first, 7 µM for the second.

`O=C(O)c1cn(C(c2ccccc2)c2ccccc2)c2sc(O)nc2c1=O` and `O=C(O)c1cn(Cc2ccc(Cl)cc2-c2ccccc2)c2sc(O)nc2c1=O` are within 1.5-fold of each other in IC50: 0.78 µM for the first, 0.87 µM for the second.

Going from `COc1ccc(CNc2nc3c(=O)c(C(=O)O)cn(Cc4ccc(Cl)cc4-c4ccccc4)c3s2)cc1` to `COc1ccc(CNc2nc3c(=O)c(C(=O)O)cn(Cc4ccccc4-c4cc(C)ccc4C)c3s2)cc1`, the IC50 falls from 3.8 µM to 2.1 µM (1.8-fold). The second is the more potent here.

Compared with `N#Cc1ccc(S(=O)(=O)Nc2nc3c(=O)c(C(=O)O)cn(Cc4ccccc4-c4ccc(Cl)cc4)c3s2)cc1`, `Cc1ccc(C)c(-c2ccccc2Cn2cc(C(=O)O)c(=O)c3nc(O)sc32)c1` is 10-fold lower in IC50: 2.5 µM for the first, 0.25 µM for the second. The second is the more potent here.

Compared with `O=C(O)c1c[nH]c2ccnn2c1=O`, `Nc1cc2[nH]cc(C(=O)O)c(=O)n2n1` is 5.8-fold lower in IC50: 58 µM for the first, 10 µM for the second. The second is the more potent here.

`CC(C)c1cc2[nH]cc(C(=O)O)c(=O)n2n1` and `O=C(O)c1c[nH]c2nc(NCc3ccccc3)nn2c1=O` [drawing 216] are within 1.5-fold of each other in IC50: 35 µM for the first, 50 µM for the second.

Compared with `O=c1cc[nH]c2nc(NS(=O)(=O)Cc3ccccc3)nn12`, `Nc1cc2n(S(=O)(=O)c3ccccc3)cc(C(=O)O)c(=O)n2n1` is 2.1-fold higher in IC50: 34 µM for the first, 71 µM for the second.

`O=C(O)c1cn(CCc2cccc(F)c2)c2cc(C3CC3)nn2c1=O` [drawing 226] and `COc1ccc(CCn2cc(C(=O)O)c(=O)n3nc(C4CC4)cc23)cc1` [drawing 228] are within 1.5-fold of each other in IC50: 62 µM for the first, 69 µM for the second.
